What was measured:
[1] = tested on: HCC1937 and SUM149 cells; experiment: Immunoblotting of BRCA1-mutant breast cancer cell lines treated with drugs; format: cell-based, human; conditions: for overall poly-ADP-ribosylation (PAR): Compound B 10 μM; for activation status of EGFR/MAPK pathways: 72 hours treatment, immunoblot
Description: The PI3K inhibitor 5-(2,6-dimorpholinopyrimidin-4-yl)-4-(trifluoromethyl)pyridin-2-amine (Compound A) was obtained through a Material Transfer Agreement with Novartis Pharmaceuticals. Olaparib (Compound B) was purchased from LC Laboratories (Woburn, Mass.) and KU-55933 was purchased from Selleck Chemicals (Houston, Tex.). BRCA1-mutant human breast cancer cell line HCC1937 was from American Type Culture Collection; # CRL-2336, and maintained in DMEM/10% FBS and SUM149 was from Division of Signal Transduction, BIDMC, maintained in Ham's F-12 with 5% fetal bovine serum (FBS), 5 μg/ml insulin, 2 μg/ml hydrocortisone, 5 μg/ml gentamicin and 2.5 μg/ml fungizone. Cell lines were authenticated by immunoblotting for BRCA1 and PTEN and tested for absence of mycoplasma.
Cells were treated with mock, 5-(2,6-dimorpholinopyrimidin-4-yl)-4-(trifluoromethyl)pyridin-2-amine (Compound A), 4-[[3-[4-(cyclopropanecarbonyl)piperazine-1-carbonyl]-4-fluorophenyl]methyl]-2H-phthalazin-1-one (Compound B), KU-55933, or the combination and lysed in cell lysis buffer (9803, Cell Signaling) as per the manufacturer's instructions. Immunoblots were performed using the Nupage System (Invitrogen). The protein concentration was determined using Bradford reagent (Biorad). A total of 20 μg of protein were loaded, except for PAR, Phospho ATM and Phospho DNA-PK/PRKDC western blots, where 40 μg were loaded. Tumor tissue lysates were prepared similarly with the exception of tissue homogenization by using an electric homogenizer for 30 secs after addition of the lysis buffer. Primary antibodies used for western blotting were total AKT (9272), Cleaved Caspace 3 (9661), total ERK (4695), Phospho AKT Ser473 (4058), Phospho ERK Thr202/Tyr204 (9106), Phospho-Histone H2AX Ser139 (2577), PTEN (9559) from Cell Signaling. Phospho ATM Ser1981 (2152-1), Phospho DNA-PK/PRKDC Ser2056 (3892-1) from Epitomics, Inc. CD31 (ab28364), Actin (ab6276), INPP4B (ab81269) from Abcam; pADPr (sc56198) from Santacruz Biotechnology; and Ki-67 (RM-9106) was purchased from Thermo Scientific.

[2] = tested on: spontaneous tumors of MMTV-CreBRCA1^f/fp53+/− mice; experiment: Tumor growth (relative tumor volume, doubling time) in spontaneous BRCA1-related breast cancer model; format: in vivo, mouse; conditions: for tumor doubling time: Compound A 50 or 30 mg/kg/day gavage (pooled), Compound B 50 mg/kg/day i.p., vehicle 5 days; for prolongation of tumor doubling time versus vehicle control: versus 5 days with vehicle
Experimental: FIGS. 6A-6D are graphs showing the synergistic effect of a PI3K inhibitor (Compound A) and PARP inhibitor (Compound B) in treating breast cancer. Trendlines (bold lines) were calculated using all data points to determine best fit and show the relative tumor growth in the vehicle control cohort (as in FIG. 6A) and in the Compound A cohort (as in FIG. 6B). The functions of the best-fit curves were used to determine tumor doubling times for all three treatment modalities and controls. Tumor-bearing MMTV-CreBRCA1^f/fp53+/− were treated with either vehicle control (6A); Compound A (6B, 50 mg/kg/day (n=11) or 30 mg/kg/day (n=10)); Compound B (6C, 50 mg/kg/day (n=8)); or the combination of Compound A and Compound B (6D, Compound A 50 mg/kg/day+Compound B 50 mg/kg/day (n=8) or Compound A 30 mg/kg/day+Compound B 50 mg/kg/day (n=7)) and tumor volumes were measured every 2-3 days using calipers.
FIG. 7 is a graph showing the relative tumor volume (RTV) over time of tumor-bearing MMTV-CreBRCA1^f/fp53+/− mice treated with a control vehicle (n=3), PI3Kα-specific inhibitor Compound C alone (n=7), or a combination of pan-PARP inhibitor Compound B and PI3Kα-specific inhibitor Compound C (n=6). The data of the control and Compound C alone treatment groups are represented by trendlines calculated using all data points to determine best fit. The data of the combination treatment group are individually represented.
All animal experiments were conducted in accordance with IACUC-approved protocols at Beth Israel Deaconess Medical Center, Boston, and at the University of Vall d'Hebron, Barcelona, Spain. Female MMTV-CreBRCA1^f/fp53+/− mice were obtained by breeding BRCA1 conditional knockout mice from the NIH repository (01XC8, strain C57BL/6) (Xu et al. Nat. Genet., 22: 37-43, 1999); with MMTV-Cre (Jackson Laboratory B6129-TgN(MMTV-Cre)4Mam) (Wagner et al. Nucleic Acids Res., 25: 4323-4330, 1997) and p53 knockout (Taconic Farms, P53N12-M, C57BL/6) (Donehower et al. Nature, 356: 215-221, 1992). At the time of the study, mice had been inbred for 4 years (>7 generations). The floxed or wild type status of Brca1, the presence of the MMTV-Cre transgene and the p53 heterozygosity were determined by PCR. Mice were examined for the occurrence of tumors twice weekly. When tumormetrics were performed, the length and width of the tumor was determined using calipers, and the tumor volume was determined (width^2×length/2). Tumor volume was used as a measure of growth and was recorded as ratio to tumor volume at diagnosis. Tumor doubling times were calculated using the functions of the best fit curves for all data points in each treatment modality. […]

## Nc1cc(C(F)(F)F)c(-c2cc(N3CCOCC3)nc(N3CCOCC3)n2)cn1 [Compound A, 5-(2,6-dimorpholinopyrimidin-4-yl)-4-(trifluoromethyl)pyridin-2-amine]
[1]; 24 hours
  cleaved caspase 3 (CC3), apoptosis marker: remained negative
[1]; 24 hours, Compound A 1 μM
  overall poly-ADP-ribosylation (PAR): dose dependent increase
[1]; 24 hours, Compound A 1 μM, Compound B 10 μM in combination
  H2AX phosphorylation on Serine 139 (γH2AX): increased with increasing concentrations
[1]
  activation status of EGFR/MAPK pathways: induced a compensatory activation
[1]; increasing concentrations, 24 hours
  phosphorylation of AKT: diminishing phosphorylation
[2]
  tumor doubling time: 26 days
  prolongation of tumor doubling time versus vehicle control: 5 fold

## O=C(c1cc(Cc2n[nH]c(=O)c3ccccc23)ccc1F)N1CCN(C(=O)C2CC2)CC1 [Compound B, 4-[[3-[4-(cyclopropanecarbonyl)piperazine-1-carbonyl]-4-fluorophenyl]methyl]-2H-phthalazin-1-one, reference compound]
[1]; 24 hours, Compound A 1 μM
  overall poly-ADP-ribosylation (PAR): completely blocked
[1]
  activation status of EGFR/MAPK pathways: did not have a discernible effect
[2]
  tumor doubling time: 16 days
  prolongation of tumor doubling time versus vehicle control: three-fold

From US20140235630A1, “COMPOSITIONS AND METHODS FOR THE TREATMENT OF PROLIFERATIVE DISEASES” (Beth Israel Deaconess Medical Center, Inc., priority 2011, published 2014)
